Assay results reported in patent US7713714B2, “Isolated nona- and decapeptides which bind to HLA molecules, and the use thereof” (Ludwig Institute for Cancer Research, priority 1997, dated 2010).
Where two headings read alike, the source gives them in different places. Each block holds one compound with its values, some of them ahead of it.

What was measured:
CTL clone M77.86 = test: 51Cr assay, recognition by Melan-A specific CTL clone M77.86; assay type: cell-based, human; settings: Table IV; for EC50: read-out: Peptide [nM] 50%; for Relative activity: relative to SEQ ID NO: 2
CTL clone 7.10 = test: 51Cr assay, recognition by Melan-A specific CTL clone 7.10; assay type: cell-based, human; settings: Table IV; for EC50: read-out: Peptide [nM] 50%; for Relative activity: relative to SEQ ID NO: 2
[1] = tested on: Melan-A specific CTL clone; test: 51Cr assay, recognition by Melan-A specific CTL clone (third clone, name not given); assay type: cell-based, human; settings: Table IV; for EC50: read-out: Peptide [nM] 50%; for Relative activity: relative to SEQ ID NO: 2
CTL clone M77.80 = test: 51Cr assay, recognition by Melan-A specific CTL clone M77.80; assay type: cell-based, human; settings: Table IV; for EC50: read-out: Peptide [nM] 50%; for Relative activity: relative to SEQ ID NO: 2
CTL clone 1.13 = test: 51Cr assay, recognition by Melan-A specific CTL clone 1.13; assay type: cell-based, human; settings: Table IV; for EC50: read-out: Peptide [nM] 50%; for Relative activity: relative to SEQ ID NO: 2
HLA-A*0201 [2] = molecular target: T1, HLA-A*0201 (Homo sapiens, UniProt P04439, D140Y/D185E/D98H/E176V/E277Q/G131W/G231S/I119V/I121R/I166T/I218V/L300P/L318F/N151K/N90K/P208A/P217A/Q86G/Q94H/R138H/R169H/T345S)
TILN LAU 203 = test: 51Cr release assay, TILN recognition of peptide on T2 cells, TILN LAU 203
TILN LAU 132 = test: 51Cr release assay, TILN recognition of peptide on T2 cells, TILN LAU 132
[3] = tested on: five HLA-A*0201 restricted Melan-A specific CTL clones; test: Recognition by five HLA-A*0201 restricted Melan-A specific CTL clones, statements; assay type: cell-based, human; settings: compared with SEQ ID NO: 2
panel of the CTLs = test: Recognition assay dissecting the CTL panel (Example 10)
HLA-A*0201 [4] = molecular target: T1, HLA-A*0201; settings: Table II; relative to SEQ ID NO: 2
HLA-A*0201 [5] = molecular target: T1, HLA-A*0201; remark: listed apart in the source
HLA-A*0201 [6] = molecular target: T1, HLA-A*0201; settings: relative to SEQ ID NO: 1
HLA-A*0201 [7] = molecular target: T1, HLA-A*0201; settings: fluorescence index, 16 hours, 23° C.
[8] = read-out:, Table III, dose response, T2 cells
[9] = Table III, relative to SEQ ID NO: 2
[10] = Table I, [nM]50% SEQ ID NO: 2 / [nM]50% test peptide
[11] = read-out: Peptide [nM] 50%, Table I, T2 targets, effector:target 30:1, concentration giving 50% of maximum activity

Compound: CC[C@H](C)[C@H](NC(=O)CNC(=O)[C@H](CC(C)C)NC(=O)[C@H](C)N)C(=O)NCC(=O)N[C@H](C(=O)N[C@@H](CC(C)C)C(=O)N[C@H](C(=O)N[C@H](C(=O)O)C(C)C)[C@@H](C)O)[C@@H](C)CC [SEQ ID NO: 5]
EC50 (CTL clone M77.86): 90 nM
EC50 (CTL clone 7.10): > 1000 nM
EC50 [1]: > 1000 nM
EC50 (CTL clone M77.80): > 1000 nM
EC50 (CTL clone 1.13): > 10000 nM
stability of peptide/HLA-A*0201 complexes (HLA-A*0201 [2]): intermediate stability
EC50 (TILN LAU 203; [8]): > 1000 nM
EC50 (TILN LAU 132; [8]): > 1000 nM

Compound: CC[C@H](C)[C@H](NC(=O)CNC(=O)[C@H](CCSC)NC(=O)[C@H](C)N)C(=O)NCC(=O)N[C@H](C(=O)N[C@@H](CC(C)C)C(=O)N[C@H](C(=O)N[C@H](C(=O)O)C(C)C)[C@@H](C)O)[C@@H](C)CC [SEQ ID NO: 6]
EC50 (CTL clone M77.86): > 1000 nM
EC50 (CTL clone 7.10): > 1000 nM
EC50 [1]: > 1000 nM
EC50 (CTL clone M77.80): > 1000 nM
EC50 (CTL clone 1.13): > 10000 nM
stability of peptide/HLA-A*0201 complexes (HLA-A*0201 [2]): intermediate stability
EC50 (TILN LAU 203; [8]): > 1000 nM
EC50 (TILN LAU 132; [8]): > 1000 nM

Compound: CC[C@H](C)[C@H](NC(=O)CNC(=O)[C@H](C)NC(=O)[C@@H](N)CCSC)C(=O)NCC(=O)N[C@H](C(=O)N[C@@H](CC(C)C)C(=O)N[C@H](C(=O)N[C@H](C(=O)O)C(C)C)[C@@H](C)O)[C@@H](C)CC [SEQ ID NO: 8]
EC50 (CTL clone M77.86): 0.6 nM
EC50 (CTL clone 7.10): 15 nM
EC50 [1]: 200 nM
EC50 (CTL clone M77.80): 0.5 nM
EC50 (CTL clone 1.13): 80 nM
stability of peptide/HLA-A*0201 complexes (HLA-A*0201 [2]): unstable complexes, which decay within one hour
EC50 (TILN LAU 203; [8]): 8 nM
EC50 (TILN LAU 132; [8]): 2.5 nM

Compound: CC[C@H](C)[C@H](NC(=O)CNC(=O)[C@H](CC(C)C)NC(=O)[C@H](C)NC(=O)[C@@H](N)CCC(=O)O)C(=O)NCC(=O)N[C@H](C(=O)N[C@@H](CC(C)C)C(=O)N[C@H](C(=O)N[C@H](C(=O)O)C(C)C)[C@@H](C)O)[C@@H](C)CC [SEQ ID NO: 11]
EC50 (CTL clone M77.86): 0.015 nM
EC50 (CTL clone 7.10): 0.5 nM
EC50 [1]: 0.015 nM
EC50 (CTL clone M77.80): 0.5 nM
EC50 (CTL clone 1.13): 20 nM
recognition by the five CTL clones, in words [3]: reduced recognition for four of five
stability of peptide/HLA-A*0201 complexes (HLA-A*0201 [2]): intermediate stability
EC50 (TILN LAU 203; [8]): > 1000 nM
EC50 (TILN LAU 132; [8]): > 1000 nM

Compound: CC[C@H](C)[C@H](NC(=O)CNC(=O)[C@H](CCSC)NC(=O)[C@H](C)NC(=O)[C@@H](N)CCC(=O)O)C(=O)NCC(=O)N[C@H](C(=O)N[C@@H](CC(C)C)C(=O)N[C@H](C(=O)N[C@H](C(=O)O)C(C)C)[C@@H](C)O)[C@@H](C)CC [SEQ ID NO: 12]
EC50 (CTL clone M77.86): 550 nM
EC50 (CTL clone 7.10): > 1000 nM
EC50 [1]: 40 nM
EC50 (CTL clone M77.80): > 1000 nM
EC50 (CTL clone 1.13): > 10000 nM
recognition by the five CTL clones, in words [3]: recognition improved
stability of peptide/HLA-A*0201 complexes (HLA-A*0201 [2]): intermediate stability
EC50 (TILN LAU 203; [8]): > 1000 nM
EC50 (TILN LAU 132; [8]): > 1000 nM

EC50 (CTL clone M77.86): 0.015 nM
EC50 (CTL clone 7.10): 35 nM
EC50 [1]: > 1000 nM
EC50 (CTL clone M77.80): 1000 nM
EC50 (CTL clone 1.13): > 10000 nM
EC50 (TILN LAU 203; [8]): 5 nM
EC50 (TILN LAU 132; [8]): 1 nM
Compound: CC[C@H](C)[C@H](NC(=O)CNC(=O)[C@H](C)NC(=O)[C@H](C)NC(=O)[C@@H](N)Cc1ccc(O)cc1)C(=O)NCC(=O)N[C@H](C(=O)N[C@@H](CC(C)C)C(=O)N[C@H](C(=O)N[C@H](C(=O)O)C(C)C)[C@@H](C)O)[C@@H](C)CC [SEQ ID NO: 13]
Relative activity (CTL clone M77.86): 1000
Relative activity (CTL clone 7.10): 1.4
Relative activity [1]: <0.3
Relative activity (CTL clone M77.80): 0.3
Relative activity (CTL clone 1.13): <0.4
recognition by the five CTL clones, in words [3]: reduced recognition by the CTLs
recognition by a fifth CTL (panel of the CTLs): recognized
recognition by four of the CTLs (panel of the CTLs): equally well
recognition by two other CTLs (panel of the CTLs): not
Relative activity (TILN LAU 203; [9]): 20
Relative activity (TILN LAU 132; [9]): 30

EC50 (CTL clone M77.86): 0.005 nM
EC50 (CTL clone 7.10): 7 nM
EC50 [1]: > 1000 nM
EC50 (CTL clone M77.80): > 1000 nM
EC50 (CTL clone 1.13): 200 nM
EC50 (TILN LAU 203; [8]): 1 nM
EC50 (TILN LAU 132; [8]): 0.05 nM
Compound: CC[C@H](C)[C@H](NC(=O)CNC(=O)[C@H](C)NC(=O)[C@H](C)NC(=O)[C@@H](N)Cc1ccccc1)C(=O)NCC(=O)N[C@H](C(=O)N[C@@H](CC(C)C)C(=O)N[C@H](C(=O)N[C@H](C(=O)O)C(C)C)[C@@H](C)O)[C@@H](C)CC [SEQ ID NO: 14]
Relative activity (CTL clone M77.86): 3000
Relative activity (CTL clone 7.10): 7
Relative activity [1]: <0.3
Relative activity (CTL clone M77.80): <0.3
Relative activity (CTL clone 1.13): 20
recognition by the five CTL clones, in words [3]: reduced recognition by the CTLs
recognition by a fifth CTL (panel of the CTLs): not
recognition by four of the CTLs (panel of the CTLs): equally well
recognition by two other CTLs (panel of the CTLs): recognized
Relative activity (TILN LAU 203; [9]): 60
Relative activity (TILN LAU 132; [9]): 600

Compound: C[C@H](NC(=O)[C@@H](N)CCC(=O)O)C(=O)N[C@@H](CC(=O)O)C(=O)N1CCC[C@H]1C(=O)N[C@H](C(=O)NCC(=O)N[C@@H](Cc1c[nH]cn1)C(=O)N[C@@H](CO)C(=O)N[C@@H](Cc1ccc(O)cc1)C(=O)O)[C@@H](C)O [SEQ ID NO: 21]
Relative competitor activity (HLA-A*0201 [4]): <0.6
binding to HLA-A*0201 compared with SEQ ID NO: 2, in words (HLA-A*0201 [5]): no binding

Compound: Glu Ala Ala Gly Ile Gly Ile Ala Thr Val [SEQ ID NO: 23]
change in competitor activity, in words (HLA-A*0201 [6]): did not result in significant changes in activity

Compound: Glu Ala Ala Gly Ile Gly Ile Leu Ala Val [SEQ ID NO: 24]
change in competitor activity, in words (HLA-A*0201 [6]): did not result in significant changes in activity

Compound: ILTVILGVL [SEQ ID NO: 4, reference compound]
binding to HLA-A*0201 compared with SEQ ID NO: 2, in words (HLA-A*0201 [5]): comparable to SEQ ID NO: 2
relative binding activity, in words (HLA-A*0201 [7]): about the same as SEQ ID NO: 2
Relative activity (TILN LAU 203; [10]): <4 × 10^−3
EC50 (TILN LAU 203; [11]): > 10000 nM
Relative activity (TILN LAU 132; [10]): <1.5 × 10^−3
EC50 (TILN LAU 132; [11]): > 10000 nM

Compound: Lys Leu Val Val Val Gly Ala Val Gly Val [SEQ ID NO: 20]
lysis percentage (HLA-A*0201 [5]; peptide used alone, CTL clone 7 RAS, T2 cells): 80%
